The target in the assay is T1, N-terminal HiBiT tagged BCL6 (Homo sapiens, UniProt P41182).
T1 construct: expressed in transfected cells; host or cells: HT1080 (ATCC CCL-121), stably transduced with lentivirus pLV-UBC-N-HiBiT-BCL6-PGK-puro
In words: HiBiT based degradation assay. The class given is cell-based. Particulars: HT1080 cells expressing N-terminal HiBiT tagged BCL6, 5 hours of incubation; for Ymin (5 hr): BCL6 degradation normalized with DMSO control; for DC50: four-parameter logistic model, read-out: EC50 (5 hr). The text has this: Human BCL6 protein coding open reading frame fused with N-terminal HiBiT coding sequence was synthesized from Integrated DNA Technologies (IDT). Next, the N-HiBiT-BCL6 sequence was cloned into pLV-UBC-PGK-Puro, a lentivirus plasmid purchased from Vectorbuilder, to generate pLV-UBC-N-HiBiT-BCL6-PGK-puro. Lentiviral particles were generated from Lenti-X™ 293T cells (Clontech) by co-transfection of pLV-UBC-N-HiBiT-BCL6-PGK-puro plasmids and lentiviral packaging plasmid mix (Cellecta). HT1080 [HT1080] (ATCC CCL-121) cells were infected with the lentivirus, and HT1080 cells stably integrated with the lentiviral vectors were established by incubation with 1 μg/mL puromycin (Thermofisher).
HT1080 cells expressing N-terminal HiBiT tagged BCL6 were dispensed into a 384-well plate pre-spotted with compounds at varying concentrations. Five thousand cells were seeded into each well in 40 μL of RPMI 1640 media plus 10% Fetal Bovine Serum (10082-147, Thermofisher). After 5 hours of incubation at 37° C. with 5% CO2, 30 μL of the NANO-GLOR HiBiT Lytic Detection System working solution (Promega) was added to each well and incubated at room temperature for 15 min. After incubation, luminescence was read on a PHERAstar FSX Plate Reader (BMG). BCL6 degradation at each indicated concentration was normalized with DMSO control. The BCL6 degradation curves were plotted using a four-parameter logistic model.
For orientation: HiBiT is a short tag that completes a luciferase, so light tracks the accessible tagged protein.

Turning to `CNC(=O)COc1cc2cc(Nc3nc(N4CC[C@H](CN5CCN(c6cccc7c(C8CCC(=O)NC8=O)nn(C)c67)CC5)[C@@H](F)C4)ncc3Cl)cnc2n(C(C)C)c1=O` (relative stereo) [Compound 238b, 2-((6-((5-chloro-2-((3R,4R)-4-((4-(3-(2,6-dioxopiperidin-3-yl)-1-methyl-1H-indazol-7-yl)piperazin-1-yl)methyl)-3-fluoropiperidin-1-yl)pyrimidin-4-yl)amino)-1-isopropyl-2-oxo-1,2-dihydro-1,8-naphthyridin-3-yl)oxy)-N-methylacetamide], the “Ymin (5 hr)” value is reported as “++++ (Ymin < 30%)” and the DC50 is 10 to 100 nM.
As for `CNC(=O)COc1cc2cc(Nc3nc(N4CC[C@H](CN5CCC(c6ccc7c(C8CCC(=O)NC8=O)nn(C)c7c6)CC5)[C@H](F)C4)ncc3Cl)cnc2n(C(C)C)c1=O` (relative stereo) [Compound 242a, 2-((6-((5-chloro-2-((3S,4R)-4-((4-(3-(2,6-dioxopiperidin-3-yl)-1-methyl-1H-indazol-6-yl)piperidin-1-yl)methyl)-3-fluoropiperidin-1-yl)pyrimidin-4-yl)amino)-1-isopropyl-2-oxo-1,2-dihydro-1,8-naphthyridin-3-yl)oxy)-N-methylacetamide], the “Ymin (5 hr)” value was “++++ (Ymin < 30%)” and the DC50 is less than 10 nM.
For `CNC(=O)COc1cc2cc(Nc3nc(N4CC[C@@H](CN5CCC(c6ccc7c(C8CCC(=O)NC8=O)nn(C)c7c6)CC5)[C@@H](F)C4)ncc3Cl)cnc2n(C(C)C)c1=O` (relative stereo) [Compound 242b, 2-((6-((5-chloro-2-((3R,4S)-4-((4-(3-(2,6-dioxopiperidin-3-yl)-1-methyl-1H-indazol-6-yl)piperidin-1-yl)methyl)-3-fluoropiperidin-1-yl)pyrimidin-4-yl)amino)-1-isopropyl-2-oxo-1,2-dihydro-1,8-naphthyridin-3-yl)oxy)-N-methylacetamide], in that order: “++++ (Ymin < 30%)” and less than 10 nM.
On to `CNC(=O)COc1cc2cc(Nc3nc(N4CC5(CC[C@H](Nc6ccc7c(C8CCC(=O)NC8=O)nn(C)c7c6)[C@@H](C)C5)C4)ncc3Cl)cnc2n(C)c1=O` (single isomer, unassigned) [Compound 156a], for which the “Ymin (5 hr)” value is “++++ (Ymin < 30%)” and the DC50 was less than 10 nM.
With `CNC(=O)COc1cc2cc(Nc3nc(N4CC5(CC[C@@H](Nc6ccc7c(C8CCC(=O)NC8=O)nn(C)c7c6)[C@@H](C)C5)C4)ncc3Cl)cnc2n(C)c1=O` (single isomer, unassigned) [Compound 156c], the “Ymin (5 hr)” value is listed as “++++ (Ymin < 30%)” and the DC50 is less than 10 nM.
Taken in the same sequence, the figures for `CNC(=O)COc1cc2cc(Nc3nc(N4CC5(CC[C@H](Oc6ccc7c(C8CCC(=O)NC8=O)nn(C)c7c6)[C@H](C)C5)C4)ncc3Cl)cnc2n(C(C)C)c1=O` (single isomer, unassigned) [Compound 185a] were “++++ (Ymin < 30%)” and less than 10 nM.
On to `CNC(=O)COc1cc2cc(Nc3nc(N4CCC([C@@H](C)N5CCN(c6cccc7c(C8CCC(=O)NC8=O)nn(C)c67)CC5)CC4)ncc3Cl)cnc2n(C(C)C)c1=O` (single isomer, unassigned) [Compound 193a], for which the “Ymin (5 hr)” value is reported as “+++ (30% ≤ Ymin < 50%)” and the DC50 was in the range of 10 to 100 nM.
Taken in the same sequence, the figures for `CNC(=O)COc1cc2cc(Nc3nc(N4CCC([C@H](C)N5CCN(c6cccc7c(C8CCC(=O)NC8=O)nn(C)c67)CC5)CC4)ncc3Cl)cnc2n(C(C)C)c1=O` (single isomer, unassigned) [Compound 193b] were “++++ (Ymin < 30%)” and 10 to 100 nM.
For `CNC(=O)COc1cc2cc(Nc3nc(N4CCC([C@@](C)(O)C5CCN(c6cccc7c(C8CCC(=O)NC8=O)nn(C)c67)CC5)CC4)ncc3Cl)cnc2n(C(C)C)c1=O` (single isomer, unassigned) [Compound 194a], the “Ymin (5 hr)” value is on record as “++++ (Ymin < 30%)” and the DC50 was in the range of 10 to 100 nM.
For `CNC(=O)COc1cc2cc(Nc3nc(N4CCN([C@@H](C)C5CCN(c6cccc7c(C8CCC(=O)NC8=O)nn(C)c67)CC5)CC4)ncc3Cl)cnc2n(C(C)C)c1=O` (single isomer, unassigned) [Compound 195a], in that order: “++++ (Ymin < 30%)” and 10 to 100 nM.
For `CNC(=O)COc1cc2cc(Nc3nc(N4CCN([C@H](C)C5CCN(c6cccc7c(C8CCC(=O)NC8=O)nn(C)c67)CC5)CC4)ncc3Cl)cnc2n(C(C)C)c1=O` (single isomer, unassigned) [Compound 195b], in that order: “+++ (30% ≤ Ymin < 50%)” and 10 to 100 nM.
Taken in the same sequence, the figures for `CNC(=O)COc1cc2cc(Nc3nc(N4CCC([C@@](C)(O)C5CCN(c6ccc7c(C8CCC(=O)NC8=O)nn(C)c7c6)CC5)CC4)ncc3Cl)cnc2n(C(C)C)c1=O` (single isomer, unassigned) [Compound 201a] were “++ (50% ≤ Ymin < 70%)” and less than 10 nM.
In the case of `CNC(=O)COc1cc2cc(Nc3nc(N4CCC([C@](C)(O)C5CCN(c6ccc7c(C8CCC(=O)NC8=O)nn(C)c7c6)CC5)CC4)ncc3Cl)cnc2n(C(C)C)c1=O` (single isomer, unassigned) [Compound 201b], the “Ymin (5 hr)” value was “+++ (30% ≤ Ymin < 50%)” and the DC50 is less than 10 nM.
On to `CNC(=O)COc1cc2cc(Nc3nc(N4CCC([C@](C)(O)C5CCN(c6cccc7c(C8CCC(=O)NC8=O)nn(C)c67)CC5)CC4)ncc3Cl)cnc2n(C(C)C)c1=O` (stereo in doubt) [Compound 194b, rel-2-((6-((5-chloro-2-(4-((1R)-1-(1-(3-(2,6-dioxopiperidin-3-yl)-1-methyl-1H-indazol-7-yl)piperidin-4-yl)-1-hydroxyethyl)piperidin-1-yl)pyrimidin-4-yl)amino)-1-isopropyl-2-oxo-1,2-dihydro-1,8-naphthyridin-3-yl)oxy)-N-methylacetamide], for which the “Ymin (5 hr)” value is given as “+++ (30% ≤ Ymin < 50%)” and the DC50 is 10 to 100 nM.
For `CNC(=O)COc1cc2cc(Nc3nc(N4CCN(CC5CCN(c6cccc7c(C8CCC(=O)NC8=O)nn(C)c67)CC5)CC4)ncc3Cl)cnc2n(C)c1=O` (centres unmarked) [Compound 101, 2-((6-((5-chloro-2-(4-((1-(3-(2,6-dioxopiperidin-3-yl)-1-methyl-1H-indazol-7-yl)piperidin-4-yl)methyl)piperazin-1-yl)pyrimidin-4-yl)amino)-1-methyl-2-oxo-1,2-dihydro-1,8-naphthyridin-3-yl)oxy)-N-methylacetamide], in that order: “++++ (Ymin < 30%)” and less than 10 nM.
Taken in the same sequence, the figures for `CNC(=O)COc1cc2cc(Nc3nc(N4CCN(CC5CCN(c6cccc7c6C(=O)N(C6CCC(=O)NC6=O)C7=O)CC5)CC4)ncc3Cl)cnc2n(C)c1=O` (centres unmarked) [Compound 102, 2-((6-((5-chloro-2-(4-((1-(2-(2,6-dioxopiperidin-3-yl)-1,3-dioxoisoindolin-4-yl)piperidin-4-yl)methyl)piperazin-1-yl)pyrimidin-4-yl)amino)-1-methyl-2-oxo-1,2-dihydro-1,8-naphthyridin-3-yl)oxy)-N-methylacetamide] were “++++ (Ymin < 30%)” and 10 to 100 nM.
With `CNC(=O)COc1cc2cc(Nc3nc(N4CCN(CC5CCN(c6cccc7c(C8CCC(=O)NC8=O)nn(C)c67)CC5)CC4)ncc3Cl)cnc2n(C(C)C)c1=O` (centres unmarked) [Compound 103, 2-((6-((5-chloro-2-(4-((1-(3-(2,6-dioxopiperidin-3-yl)-1-methyl-1H-indazol-7-yl)piperidin-4-yl)methyl)piperazin-1-yl)pyrimidin-4-yl)amino)-1-isopropyl-2-oxo-1,2-dihydro-1,8-naphthyridin-3-yl)oxy)-N-methylacetamide], the “Ymin (5 hr)” value is “++++ (Ymin < 30%)” and the DC50 was in the range of 10 to 100 nM.
Turning to `CNC(=O)COc1cc2cc(Nc3nc(N4CCN(CC5CCN(c6ccc7c(C8CCC(=O)NC8=O)nn(C)c7c6)CC5)CC4)ncc3Cl)cnc2n(C(C)C)c1=O` (centres unmarked) [Compound 104, 2-((6-((5-chloro-2-(4-((1-(3-(2,6-dioxopiperidin-3-yl)-1-methyl-1H-indazol-6-yl)piperidin-4-yl)methyl)piperazin-1-yl)pyrimidin-4-yl)amino)-1-isopropyl-2-oxo-1,2-dihydro-1,8-naphthyridin-3-yl)oxy)-N-methylacetamide], the “Ymin (5 hr)” value is “+++ (30% ≤ Ymin < 50%)” and the DC50 was less than 10 nM.
Taken in the same sequence, the figures for `CNC(=O)COc1cc2cc(Nc3nc(N4CCN(CC5CCN(c6cccc7c(C8CCC(=O)NC8=O)nn(C)c67)CC5)[C@@H](C)C4)ncc3Cl)cnc2n(C(C)C)c1=O` (stereo partly drawn) [Compound 105a, 2-((6-((5-chloro-2-((3S)-4-((1-(3-(2,6-dioxopiperidin-3-yl)-1-methyl-1H-indazol-7-yl)piperidin-4-yl)methyl)-3-methylpiperazin-1-yl)pyrimidin-4-yl)amino)-1-isopropyl-2-oxo-1,2-dihydro-1,8-naphthyridin-3-yl)oxy)-N-methylacetamide] were “++++ (Ymin < 30%)” and 10 to 100 nM.

The values are drawn from patent publication US20260241012A1, “1,8-NAPHTHYRIDIN-2-ONE HETEROBIFUNCTIONAL BCL6 DEGRADERS” (Treeline Biosciences, Inc., priority 2022, published 2026).
